Data reported in US9040714B2 (MannKind Corporation, priority 2010, dated 2015).
Read-outs that look alike come from different tables or passages of the source.

Columns and labels:
[1] = tested on: IRE-1α-mediated XBP-1 splicing in human myeloma MM.1s cells; assay: Cellular EC50: endogenous XBP-1 splicing in myeloma cells by RT-PCR (DTT stress); assay type: cell-based; conditions: MM1.S, read-out: EC50_av
Outline: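 MM.1s myeloma cells were pretreated with compound 1.25 h, then stressed with 2 mM DTT for 45 min more (2 h total). XBP-1 was amplified by RT-PCR from total RNA with intron-flanking primers; ED50 taken at 50% spliced XBP-1s of total XBP-1.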

[2] = biological target: human IRE-1α (GST-IRE-1α) (Homo sapiens (Human), UniProt O75460); assay: IRE-1α assay in vitro: cleavage of Cy5/BHQ2-labelled mini-XBP-1 mRNA stem-loop substrate; assay type: biochemical; conditions: average IC50 for inhibition of IRE-1α
human IRE-1α (GST-IRE-1α), sequence (O75460 19-977): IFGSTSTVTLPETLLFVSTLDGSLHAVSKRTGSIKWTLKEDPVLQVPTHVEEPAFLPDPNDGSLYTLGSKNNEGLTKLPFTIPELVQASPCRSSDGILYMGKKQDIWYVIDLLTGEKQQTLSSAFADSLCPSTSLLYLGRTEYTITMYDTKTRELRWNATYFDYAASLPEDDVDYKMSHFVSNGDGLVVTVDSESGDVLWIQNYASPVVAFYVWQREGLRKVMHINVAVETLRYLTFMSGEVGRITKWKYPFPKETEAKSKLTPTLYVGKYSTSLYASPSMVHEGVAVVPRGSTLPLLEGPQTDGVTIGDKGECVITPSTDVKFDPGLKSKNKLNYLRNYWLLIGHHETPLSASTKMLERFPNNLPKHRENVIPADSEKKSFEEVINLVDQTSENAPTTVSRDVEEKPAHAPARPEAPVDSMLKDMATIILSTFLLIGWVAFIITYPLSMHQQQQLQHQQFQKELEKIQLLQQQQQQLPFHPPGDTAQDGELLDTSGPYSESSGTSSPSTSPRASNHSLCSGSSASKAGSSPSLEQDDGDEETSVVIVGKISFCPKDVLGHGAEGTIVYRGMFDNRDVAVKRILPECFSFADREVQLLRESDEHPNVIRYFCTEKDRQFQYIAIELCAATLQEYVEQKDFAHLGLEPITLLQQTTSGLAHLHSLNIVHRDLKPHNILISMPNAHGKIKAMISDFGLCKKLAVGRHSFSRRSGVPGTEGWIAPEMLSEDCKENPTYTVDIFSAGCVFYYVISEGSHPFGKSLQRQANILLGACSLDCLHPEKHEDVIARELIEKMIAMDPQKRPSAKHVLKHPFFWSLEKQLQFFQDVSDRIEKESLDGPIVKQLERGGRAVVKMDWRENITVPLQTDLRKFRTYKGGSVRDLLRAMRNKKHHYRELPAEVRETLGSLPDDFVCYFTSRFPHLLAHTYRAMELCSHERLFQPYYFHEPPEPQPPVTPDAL
Procedure: In some embodiments IRE-la inhibitor compounds form a complex with IRE-1α. […] Other substrates also can be used to detect cleavage. See US 2007/0105123.
A fusion protein comprising glutathione S transferase (GST) and human IRE-1α (GST-IRE-1α) obtained from a 500 ml baculovirus-infected insect cell culture can be used to measure IRE-1α activity in vitro.
Five μl of a reaction mixture comprising IX reaction buffer (5× reaction buffer is 100 mM Hepes pH 7.5, 250 mM KOAc, 2.5 mM MgCl2), 3 mM DTT, and 0.4% polyethylene glycol water is added to each well of 384 well plates. Twenty-five nanoliters of a 1 mM test compound solution are added to test wells. Three μl of a […] IRE-1α preparation are added to each test well and to positive control wells (final concentration 5.82 ng/well). Negative control wells contain only reaction mixture and test compound.
After spinning the plates at 1200 rpm for 30 seconds, 3 μl of an IRE-1α human mini-XBP-1 mRNA stem-loop substrate 5′-[…]-3′ (SEQ ID NO:1), labeled with the fluorescent dye Cy5 at the 5′ end and Black Hole Quencher 2 (BH2) at the 3′ end, are added to each well of a control plate. The plates are again spun at 1200 rpm for 30 seconds. Final concentrations for the assay are: 63 nM IRE-1α substrate, 5.82 ng IRE-1α protein, and 2.5 μM test compound.
The plates are covered with lids and incubated for one hour at 30° C. The plates are then transferred to an ACQUEST™ microplate reader. Data is analyzed using data analysis software, and the percent activity of IRE-1α is calculated.
IC50 for inhibition of IRE-1α of compounds identified in Table 1 was measured as described in EXAMPLE 35.

[3] = average cellular EC50, XBP-1 splicing in myeloma cells

Compound | EC50 [1, 3] | IC50 [2] | EC50 [1]
COCCNC(=O)CCc1c(C)c2c(OC)cc(O)c(C=O)c2oc1=O [Example 194] | < 10 µM | < 0.1 µM | 
O=Cc1c(O)ccc2nc(-c3cccc(C(=O)O)c3)[nH]c12 [Example 64] | > 10 µM | < 0.1 µM | 
Cc1nc(N2CCc3c(ccc(O)c3C=O)C2)sc1C(=O)NC1CCN(C)CC1 [Example 36] | > 10 µM | < 1 µM | 
COCCNC(=O)CCc1c(COC)c2cc(OC)c(O)c(C=O)c2oc1=O [Example 138] | > 10 µM | < 1 µM | 
Cc1c(-c2ccc(C(=O)NCCN3CCOCC3)cc2)c(=O)oc2c(C=O)c(O)ccc12 [Example 3] | < 10 µM | < 0.1 µM | 
Cc1c(-c2ccc(C(=O)N3CCOCC3)cc2)c(=O)oc2c(C=O)c(O)c(Cl)cc12 [Example 67] | > 10 µM | < 1 µM | 
COc1cc(O)c(C=O)c2oc(=O)c(CCC(=O)N3CCN(C)CC3)c(C)c12 [Example 193] | < 10 µM | < 0.1 µM | 
Cc1c(CC(=O)N2CCOCC2)c(=O)oc2c(C=O)c(O)ccc12 [Example 129] | < 10 µM | < 0.1 µM | 
Cc1cc(=O)oc2c(C=O)c(O)c(Cl)cc12 [Example 22] | < 10 µM | < 0.1 µM | 
COc1cc2c(C)c(C)c(=O)oc2c(C=O)c1O [Example 199] | > 10 µM | < 0.1 µM | 
Cc1c(-c2cccc(C(=O)N3CCN(C)CC3)c2)c(=O)oc2c(C=O)c(O)ccc12 [Example 10] |  | < 0.1 µM | < 10 µM
COc1cc2c(C)c(-c3ccc(N4CCN(C)CC4)nc3)c(=O)oc2c(C=O)c1O [Example 113] |  | < 0.1 µM | < 10 µM
COc1cc(O)c(C=O)c2oc(=O)c(CC(=O)NCCN(C)C)c(C)c12 [Example 180] | < 10 µM | < 0.1 µM | 
COc1cc(O)c(C=O)c2oc(=O)c(CC(=O)NCCN3CCOCC3)c(C)c12 [Example 179] | < 10 µM | < 1 µM | 
COc1cc2c(C)c(CCC(=O)N3CCN(C)CC3)c(=O)oc2c(C=O)c1O [Example 173] |  | < 0.1 µM | < 10 µM
COCCOc1cc(O)c(C=O)c2oc(=O)c(CCC(=O)N3CCN(C)CC3)c(C)c12 [Example 154] |  | < 0.1 µM | < 10 µM
COc1cc2c(C(C)C)cc(=O)oc2c(C=O)c1O [Example 146] | < 10 µM | < 0.1 µM | 
Cc1c(-c2cccc(C(=O)N(C)C)c2)c(=O)oc2c(C=O)c(O)ccc12 [Example 20] |  | < 1 µM | > 10 µM
COc1cc2c(C)c(-c3ccc(C(=O)N4CCN(C)CC4)s3)c(=O)oc2c(C=O)c1O [Example 141] | < 10 µM | < 0.1 µM | 
Cc1nc(-c2cc3ccc(O)c(C=O)c3oc2=O)sc1C(=O)N1CCN(C)CC1 [Example 108] | < 10 µM | < 0.1 µM | 
COCCOCCc1c(C)c2cc(OC)c(O)c(C=O)c2oc1=O [Example 127] | < 10 µM | < 0.1 µM | 
COCCOc1cc2c(C)c(CCC(=O)NCCN3CCOCC3)c(=O)oc2c(C=O)c1O [Example 186] | > 10 µM | < 1 µM | 
COCCNC(=O)CCc1c(C)c2cc(OC)c(O)c(C=O)c2oc1=O [Example 171] |  | < 0.1 µM | < 10 µM
COCCNC(=O)Cc1c(C)c2c(OC)cc(O)c(C=O)c2oc1=O [Example 176] | < 10 µM | < 0.1 µM | 
COc1cc2c(C(F)(F)F)cc(=O)oc2c(C=O)c1O [Example 197] | < 10 µM | < 1 µM | 
O=Cc1c(O)ccc2c1CCN(Cc1ccccc1)C2 [Example 28] | > 10 µM | < 10 µM | 

Compound | EC50 [1, 3] | IC50 [2] | EC50 [1]
Cc1c(-c2ccc(C(=O)N3CCOCC3)cc2)c(=O)oc2c(C=O)c(O)ccc12 [Example 12] | < 10 µM | < 0.1 µM | 
COc1cc2c(C)c(CCC(=O)N3CCOCC3)c(=O)oc2c(C=O)c1O [Example 172] | < 10 µM | < 0.1 µM | 
O=Cc1c(O)ccc2nc(-c3cccc(C(=O)NCCN4CCOCC4)c3)ccc12 [Example 46] |  | < 0.1 µM | < 10 µM
CCOC(=O)c1cnc(-c2cc3ccc(O)c(C=O)c3oc2=O)s1 [Example 106] | < 10 µM | < 0.1 µM | 
Cc1c(-c2ccc(N3CCN(C)CC3)cc2)c(=O)oc2c(C=O)c(O)c(F)cc12 [Example 24] | < 10 µM | < 0.1 µM | 
COc1cc2c(C)c(-c3ccc(N(C)C)nc3)c(=O)oc2c(C=O)c1O [Example 115] | < 10 µM | < 1 µM | 
Cc1c(CC(=O)N2CCN(C)CC2)c(=O)oc2c(C=O)c(O)ccc12 [Example 130] |  | < 0.1 µM | < 10 µM
COCCNC(=O)c1ccc(-c2c(C)c3cc(Cl)c(O)c(C=O)c3oc2=O)cc1 [Example 150] |  | < 1 µM | > 10 µM
CN1CCN(C(=O)c2ccc(-c3ccc4c(C=O)c(O)ccc4n3)cc2)CC1 [Example 41] | < 10 µM | < 1 µM | 
COc1cc2c(C)c(-c3ccc(N4CCOCC4)nc3)c(=O)oc2c(C=O)c1O [Example 114] | < 10 µM | < 1 µM | 
Cc1c(-c2cccc(C(=O)NCCN3CCOCC3)c2)c(=O)oc2c(C=O)c(O)ccc12 [Example 11] | < 10 µM | < 0.1 µM | 
Cc1c(/C=C/C(=O)N2CCN(C)CC2)c(=O)oc2c(C=O)c(O)ccc12 [Example 112] | < 10 µM | < 0.1 µM | 
CN1CCN(C(=O)c2cnc(N3CCc4c(ccc(O)c4C=O)C3)s2)CC1 [Example 33] |  | < 10 µM | > 10 µM
COCc1c(C)c(=O)oc2c(C=O)c(O)ccc12 [Example 137] | < 10 µM | < 0.1 µM | 
COCCOc1cc(O)c(C=O)c2oc(=O)c(CCC(=O)NCCN(C)C)c(C)c12 [Example 157] | > 10 µM | < 1 µM | 
COCc1c(CCC(=O)NCCN2CCOCC2)c(=O)oc2c(C=O)c(O)c(OC)cc12 [Example 140] | > 10 µM | < 1 µM | 
COc1cc2c(C)c(CCC(=O)NCCO)c(=O)oc2c(C=O)c1O [Example 147] | > 10 µM | < 0.1 µM | 
CCc1cc2c(C)c(-c3ccc(C(=O)NCCN4CCOCC4)cc3)c(=O)oc2c(C=O)c1O [Example 117] |  | < 1 µM | < 10 µM
CCOC(=O)Cc1c(C)c2cc(OC)c(O)c(C=O)c2oc1=O [Example 131] |  | < 0.1 µM | < 10 µM
COCc1c(CCC(=O)N2CCOCC2)c(=O)oc2c(C=O)c(O)c(OC)cc12 [Example 139] | < 10 µM | < 0.1 µM | 
Cc1nc(N2CCc3c(ccc(O)c3C=O)C2)sc1C(=O)NCCN1CCOCC1 [Example 37] | > 10 µM | < 0.1 µM | 
COc1cc(O)c(C=O)c2oc(=O)c(CCC(=O)NCCN3CCOCC3)c(C)c12 [Example 196] | < 10 µM | < 0.1 µM | 
COCCOc1cc2c(C)c(CCC(=O)N3CCN(C)CC3)c(=O)oc2c(C=O)c1O [Example 182] | < 10 µM | < 0.1 µM | 
COc1cc2c(C)c(CC(=O)NCCO)c(=O)oc2c(C=O)c1O [Example 148] | > 10 µM | < 0.1 µM | 
COc1cc2c(C)c(-c3ccc(C(=O)NCCN4CCOCC4)s3)c(=O)oc2c(C=O)c1O [Example 143] | < 10 µM | < 1 µM | 
